One test relates to cancer cell lines. The test can be described thus: Western blot analysis of mitotic arrest, apoptosis and SAC activation in cancer cell lines. In kind it is cell-based, human.
In test [1] the target is T1, RXRα heterodimerization with RARγ (Homo sapiens, UniProt P19793).
T1 construct: expressed in transfected cells; host or cells: HeLa
T1 sequence (P19793 1-462): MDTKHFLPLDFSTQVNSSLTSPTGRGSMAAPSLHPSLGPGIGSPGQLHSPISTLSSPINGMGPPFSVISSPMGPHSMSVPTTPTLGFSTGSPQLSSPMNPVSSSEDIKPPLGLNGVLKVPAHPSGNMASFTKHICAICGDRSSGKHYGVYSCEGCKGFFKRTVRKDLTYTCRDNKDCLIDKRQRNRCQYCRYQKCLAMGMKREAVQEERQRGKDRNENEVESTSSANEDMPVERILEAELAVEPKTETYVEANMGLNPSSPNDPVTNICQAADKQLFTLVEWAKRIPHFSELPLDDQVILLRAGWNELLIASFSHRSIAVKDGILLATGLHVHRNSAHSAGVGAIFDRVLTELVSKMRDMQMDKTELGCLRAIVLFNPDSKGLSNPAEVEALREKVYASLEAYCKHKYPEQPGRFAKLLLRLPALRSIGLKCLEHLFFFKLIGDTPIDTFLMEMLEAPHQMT
T1 sequence (P13631 1-454 partner): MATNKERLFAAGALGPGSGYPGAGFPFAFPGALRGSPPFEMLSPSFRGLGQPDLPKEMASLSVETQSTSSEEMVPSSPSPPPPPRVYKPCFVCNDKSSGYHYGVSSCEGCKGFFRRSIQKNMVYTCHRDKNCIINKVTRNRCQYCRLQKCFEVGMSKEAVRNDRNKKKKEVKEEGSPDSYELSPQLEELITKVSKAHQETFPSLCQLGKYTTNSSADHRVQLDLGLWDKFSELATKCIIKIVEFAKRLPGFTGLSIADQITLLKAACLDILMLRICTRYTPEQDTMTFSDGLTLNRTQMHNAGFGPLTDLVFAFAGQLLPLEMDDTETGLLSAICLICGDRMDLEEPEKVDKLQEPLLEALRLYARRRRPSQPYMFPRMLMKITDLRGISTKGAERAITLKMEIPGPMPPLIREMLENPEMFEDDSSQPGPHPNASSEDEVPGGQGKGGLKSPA
The test can be described thus: Co-immunoprecipitation of Myc-RXRα with FLAG-RARγ in HeLa cells. In kind it is cell-based. Conditions: 10 μM for 3 hr (FIG. 55).

Test [2] deals with HepG2 liver cancer and THLE-2 nontumorous liver cells. The test can be described thus: Western blot analysis of HepG2 and THLE-2 cells. In kind it is cell-based, human. As to conditions: 10 μM for 12 hr (FIG. 68). Background: A western blot detects proteins with antibodies after separation by electrophoresis.
Another test concerns QSG-7701 cells. The test can be described thus: Western blot analysis of QSG-7701 normal liver cells. In kind it is cell-based, human. As to conditions: 12 hr (FIG. 61).
Another test deals with B16F10 and 4T1 cells. The test can be described thus: Mitotic arrest and chromosome misalignment in B16F10 and 4T1 tumor cells. Format: cell-based, mouse.
Test [3] deals with T2, p-RXRα and PLK1 at the centrosome (Homo sapiens, UniProt P19793).
T2 construct: endogenous in cells; host or cells: HepG2
T2 sequence (P19793 1-462): T1 sequence (P19793 1-462)
The test can be described thus: In situ proximity ligation assay (PLA) in HepG2 cells. In kind it is cell-based. As to conditions: RO-3306 10 μM for 30 min or compound A1 10 μM for 2 hr (FIG. 56). The procedure:
An in situ proximity ligation assay (PLA) was performed in HeLa cells and HepG2 by using a DOULINK™ assay kit. Briefly, cells mounted on glass slides were fixed with methanol at −20° C. for 5 min, then permeabilized with 0.05% Triton X-100 in a PBS buffer for 8 min at 4° C., and blocked with a blocking solution for 60 min at 37° C., followed by incubation with primary antibodies for 60 min at 37° C. The slides were then washed three times with wash buffer A, and PLA labeled secondary antibodies (anti-mouse, minus; anti-rabbit, plus) were added and incubated for 60 min at 37° C. The slides were washed two times with wash buffer A and a ligation solution including a ligase was added for 30 min at 37° C. After ligation, the slides were washed two times with wash buffer A and followed by incubation with an amplification buffer including a polymerase for 100 min at 37° C. After amplification, the slides were washed two times with 1×wash buffer B and one time in 0.01×wash buffer B. Finally, the slides were mounted using a minimal volume of a mounting medium with DAPI and analyzed in a confocal microscope after 15 min.

Test [4] concerns the target T3, m-RXRα (p-RXRα) interaction with PLK1 (Homo sapiens, UniProt P19793).
T3 sequence (P19793 1-462): T1 sequence (P19793 1-462)
The test can be described thus: Co-immunoprecipitation of Myc-RXRα with FLAG-PLK1 in HeLa cells. Conditions: 10 μM for 3 hr (FIG. 55).
Method: Briefly, cells were harvested in a lysis buffer (10 mM Tris, pH 7.4, 150 mM NaCl, 0.5% NP40, 5 mM ethylene diamine tetraacetic acid, containing protease inhibitors). Cell lysates were incubated with an antibody (1 μg) at 4° C. for 2 hr. Immunocomplexes were then precipitated with 30 μL of protein G-Sepharose beads. After an extensive washing with the lysis buffer, the beads were boiled in a sodium dodecyl sulfate (SDS) sample loading buffer and assessed by western blotting.
Cell lysates were boiled in an SDS sample loading buffer, resolved by 10% SDS-polyacrylamide gel electrophoresis (SDS-PAGE), and transferred to PVDF membranes. The membranes were blocked with 5% milk in a Tris buffered saline and TWEEN 20 (TBST)(10 mM Tris-HCl, pH 8.0, 150 mM NaCl, 0.05% TWEEN 20) for 1 hr at room temperature. After washing twice with TBST, the membranes were incubated with primary antibodies in TBST for 1 hr and then washed twice, probed with a horseradish peroxide-linked anti-immunoglobulin (1:5,000 dilution) for 1 hr at room temperature. After three washes with TBST, immunoreactive products were visualized using enhanced chemiluminescence reagents and autoradiography.

Another test deals with HeLa cells. The test can be described thus: MT nucleation activity at the centrosomes in cold-treated, reheated HeLa cells. Format: cell-based, human. Conditions: reheated at 37° C., 10 μM (FIG. 59).

The values below come from patent publication US20240034785A1, “RXR-ALPHA BINDERS AND RXR-ALPHA/PLK1 MODULATORS” (NUCMITO PHARMACEUTICALS CO. LTD., priority 2020, published 2024).

For the compound `COc1ccc(CC(=O)N/N=C/c2c(O)ccc3ccccc23)cc1` [Compound A1, (E)-N′-((2-hydroxynaphthalen-1-yl)methylene)-2-(4-methoxyphenyl)acetohydrazide], in the test on cancer cell lines, the “apoptosis of cancer cells” value is “induced apoptosis of cancer cells in a dose-dependent and RXRα-dependent manner”. The “activation of the spindle assembly checkpoint (SAC), mobility-shifted BubR1” value in the test on cancer cell lines (FIGS. 61, 62 and 68) is on record as “accompanied with the activation of the spindle assembly checkpoint (SAC)”. Also, the “nuclear morphology (mitotic catastrophe)” value in the test with cancer cell lines (cancer cells treated with compound A1) is listed as “exhibited multi-lobular, giant nuclear and/or highly fragmented/bursted nuclei”. In addition, the “induction of mitotic arrest and apoptosis” value in the test with cancer cell lines (various cancer cell lines (HepG2, Bel-7402, SK-Hep-1), 12 hr (FIGS. 61 and 62)) is recorded as “observed”. Also, the “RXRα heterodimerization with RARγ (CoIP)” value in test [1] is on record as “no effect”. The “inducing G2/M arrest, SAC activation, and apoptosis in HepG2 versus THLE-2 cells” value in test [2] was “differential effects”. In the test with QSG-7701 cells, the “effect in p-RXRα-negative noncancerous QSG-7701 cells” value is “but not p-RXRα-negative noncancerous QSG-7701 cells”. Besides, the “chromosomal aberrations (chromosome misalignment)” value in the test on B16F10 and 4T1 cells (10 μM for 2 hr (FIG. 67)) is on record as “chromosomal aberrations”. In the test on B16F10 and 4T1 cells (10 μM for 6 hr (FIG. 66)), the mitotic arrest entry is “caused mitotic arrest”. Besides, the “in situ interaction between p-RXRα and PLK1 at the centrosome (PLA)” value in test [3] is “inhibited the in situ interaction”. The “p-RXRα interaction with PLK1 (CoIP)” value in test [4] is given as “inhibited”. In addition, the “α-tubulin nucleation (MT nucleation activity at the centrosomes)” value in the test with HeLa cells is reported as “inhibited α-tubulin nucleation”.
